The source made the active and inactive calls. The calls are words filed in the database; no cut-off is given here.
How the values were obtained:
[1] = target: DNA dC->dU-editing enzyme APOBEC-3G (Homo sapiens) (UniProt Q9HC16); assay: Binding affinity to FLAG-tagged human A3G expressed in human 293T cells at 13 uM incubated for 16 hrs in presence of EDTA by streptavidin agarose based immunoblot analysis; type: cell-based
[2] = target: DNA dC->dU-editing enzyme APOBEC-3G (Homo sapiens) (UniProt Q9HC16); assay: Binding affinity to FLAG-tagged human A3G expressed in human 293T cells at 13 uM incubated for 16 hrs by streptavidin agarose based immunoblot analysis; type: cell-based

Chain of DNA dC->dU-editing enzyme APOBEC-3G (Homo sapiens) (Q9HC16 whole entry): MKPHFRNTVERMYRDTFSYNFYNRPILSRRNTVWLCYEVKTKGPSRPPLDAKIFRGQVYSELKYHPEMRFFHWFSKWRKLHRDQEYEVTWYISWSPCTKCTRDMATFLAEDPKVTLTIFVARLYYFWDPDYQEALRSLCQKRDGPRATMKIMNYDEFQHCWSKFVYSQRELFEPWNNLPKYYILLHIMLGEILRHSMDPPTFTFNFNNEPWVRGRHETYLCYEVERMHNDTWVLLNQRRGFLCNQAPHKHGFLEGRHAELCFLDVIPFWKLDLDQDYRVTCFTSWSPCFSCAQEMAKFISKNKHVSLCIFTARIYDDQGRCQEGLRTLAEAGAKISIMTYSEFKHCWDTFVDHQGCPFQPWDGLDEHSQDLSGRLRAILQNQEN

Row | Activity [1] | Activity [2] | SMILES
1 | inactive | Active | O=C(CCCC[C@@H]1SC[C@@H]2NC(=O)N[C@@H]21)NCCCCCCOC(=O)Nc1cc(CNCCS)nc(CNCCS)c1
2 | – | inactive | COC(=O)CCCC[C@@H]1SC[C@@H]2NC(=O)N[C@@H]21

From ChEMBL document CHEMBL3826958, “Zinc-mediated binding of a low-molecular-weight stabilizer of the host anti-viral factor apolipoprotein B mRNA-editing enzyme, catalytic polypeptide-like 3G” (Bioorg Med Chem, 2016)
